These are literature values, as cited in patent publication US20250170094A1 (priority 2023, published 2025).

Like-named read-outs stand apart in the source and are kept apart here. Where only a bound is given, the exact number is not on record here.

Assay in series [1]: not given
This is another data set of the same source.

On to `CCC(CC)[C@H](NC(C)=O)[C@@H]1[C@H](O)[C@@H](C(=O)O)C[C@H]1NC(=N)N` [peramivir, (1S,2S,3R,4R)-3-[(1S)-1-(acetylamino)-2-ethylbutyl]-4-guanidino-2-hydroxycyclopentanecarboxylic acid], for which the solubility result runs as follows: (pH 1.0) “about 59 mg/ml”; (pH≥5) at most 20 mg/mL. In addition, in series [1], the “oil-water partition coefficient LogP[n-octanol/water]” value was −1.16.

As usually defined, the solubility is the concentration that dissolves in the medium under given conditions.
